Laboratory results from patent publication US11339419B2, “Scavenger protein(s) for improved preservation of analyte detection sensor(s) and method(s) of use thereof” (Siemens Healthcare Diagnostics Inc., priority 2017, dated 2022).
Several values for one entry are separate records, joined by “and”; a condition that tells them apart may be missing. Equal entries are not always repeated.

Test system: sarcosine oxidase (BBI Solutions)
Test: BBI Solutions Sarcosine Oxidase Enzyme Absorbance with BSA and MIT
Assay type: biochemical
Settings: for Sarcosine Oxidase Enzyme Absorbance, MEAN of 7-11 / Sarcosine Oxidase Enzyme Absorbance, replicates 7-11 / Sarcosine Oxidase Enzyme Absorbance, MEAN of 1-5 / Sarcosine Oxidase Enzyme Absorbance, solutions 1-5: 37° C.
[1] = Day 0, 5 mg/mL BSA only, no MIT (50 ppm MIT row)
[2] = Day 0, 5 mg/mL BSA only, no MIT (100 ppm MIT row)
[3] = Day 0, 25 mg/mL BSA only, no MIT (50 ppm MIT row)
[4] = Day 0, 25 mg/mL BSA only, no MIT (100 ppm MIT row)
[5] = Day 0, 50 mg/mL BSA only, no MIT (50 ppm MIT row)
[6] = Day 0, 50 ppm MIT, 25 mg/mL BSA
[7] = Day 0, 50 ppm MIT, 50 mg/mL BSA
[8] = Day 0, 100 ppm MIT, 5 mg/mL BSA
[9] = Day 0, 100 ppm MIT, 25 mg/mL BSA
[10] = Day 0, 100 ppm MIT, 50 mg/mL BSA
[11] = Day 4, 50 ppm MIT, 25 mg/mL BSA
[12] = Day 4, 50 ppm MIT, 50 mg/mL BSA
[13] = Day 4, 100 ppm MIT, 5 mg/mL BSA
[14] = Day 4, 100 ppm MIT, 25 mg/mL BSA
[15] = Day 4, 100 ppm MIT, 50 mg/mL BSA
[16] = Day 14, 50 ppm MIT, 5 mg/mL BSA
[17] = Day 14, 50 ppm MIT, 25 mg/mL BSA
[18] = Day 14, 50 ppm MIT, 50 mg/mL BSA
[19] = Day 14, 100 ppm MIT, 5 mg/mL BSA
[20] = Day 14, 100 ppm MIT, 25 mg/mL BSA
[21] = Day 14, 100 ppm MIT, 50 mg/mL BSA

Experimental: Tables 1-4 depict aqueous solutions comprising varying concentrations of BSA (at concentrations of 0 mg/mL, 5 mg/mL, 25 mg/mL, and 50 mg/mL), varying concentrations of MIT (at concentrations of 50 parts per million and 100 parts per million) or Proclin™ 300 (at concentrations of 0.7% and 1.4%) biocides over a particular time period (measurements were taken at days 0, 4, and 14 after exposure of the enzyme(s) to the aqueous solutions) and the associated enzyme absorbance measurements for sarcosine oxidase (commercially offered for sale by BBI Solutions and Toyobo). Absorbance measurements of the sarcosine oxidase enzyme(s) were taken via spectrophotometer for each aqueous solution (represented as columns 1-5 in Tables 1-4—column 6 is a blank), the absorbance being directly proportional to the enzyme activity being measured-which for Tables 1-4 is sarcosine oxidase enzyme activity. Accordingly, the higher the absorbance measurement, the higher the enzyme activity of sarcosine oxidase. Columns 7-11 represent five replicate readings in which the aqueous solution only contains BSA (i.e., there is no biocide(s) present in the aqueous solution). In addition, the mean values, standard deviations, and coefficients of variation are also presented for the enzyme activity/absorbance of each aqueous solution. All measurements were taken at 37° C.
As depicted below in Table 1, sarcosine oxidase (commercially offered for sale by BBI Solutions) enzyme activity is measured against various concentrations of MIT (biocide) and BSA (scavenger protein) over a period of 14 days (with absorbance measurements taken at 0, 4, and 14 days) for five different aqueous solutions (represented as columns 1-5—column 6 is a blank).

bovine serum albumin [BSA]
Sarcosine Oxidase Enzyme Absorbance, MEAN of 7-11 [1]: 1.39 | Sarcosine Oxidase Enzyme Absorbance, replicates 7-11 [1]: 1.428 | Sarcosine Oxidase Enzyme Absorbance, MEAN of 7-11 [2]: 1.38 | Sarcosine Oxidase Enzyme Absorbance, replicates 7-11 [2]: 1.439 and 1.414 and 1.437 and 1.422 | Sarcosine Oxidase Enzyme Absorbance, MEAN of 7-11 [3]: 1.37 | Sarcosine Oxidase Enzyme Absorbance, replicates 7-11 [3]: 1.434 | Sarcosine Oxidase Enzyme Absorbance, MEAN of 7-11 [4]: 1.39 | Sarcosine Oxidase Enzyme Absorbance, replicates 7-11 [4]: 1.43 and 1.428 and 1.409 and 1.458 | Sarcosine Oxidase Enzyme Absorbance, MEAN of 7-11 [5]: 1.41 | Sarcosine Oxidase Enzyme Absorbance, replicates 7-11 [5]: 1.454 | Sarcosine Oxidase Enzyme Absorbance, MEAN of 7-11 (Day 0, 50 mg/mL BSA only, no MIT (100 ppm MIT row)): 1.35 | % Bias (Day 0, 50 ppm MIT vs no MIT, 5 mg/mL BSA): 2.3% | % Bias (Day 0, 50 ppm MIT vs no MIT, 25 mg/mL BSA): −0.5% | % Bias (Day 0, 50 ppm MIT vs no MIT, 50 mg/mL BSA): −0.1% | Sarcosine Oxidase Enzyme Absorbance, MEAN of 1-5 (Day 0, 50 ppm MIT, 5 mg/mL BSA): 1.42 | Sarcosine Oxidase Enzyme Absorbance, solutions 1-5 (Day 0, 50 ppm MIT, 5 mg/mL BSA): 1.484 and 1.435 and 1.486 and 1.455 and 1.454 | Sarcosine Oxidase Enzyme Absorbance, MEAN of 1-5 [6]: 1.37 | Sarcosine Oxidase Enzyme Absorbance, solutions 1-5 [6]: 1.385 and 1.39 and 1.401 and 1.423 and 1.433 | Sarcosine Oxidase Enzyme Absorbance, MEAN of 1-5 [7]: 1.41 | Sarcosine Oxidase Enzyme Absorbance, solutions 1-5 [7]: 1.445 and 1.468 and 1.458 and 1.406 and 1.484 | % Bias (Day 0, 100 ppm MIT vs no MIT, 5 mg/mL BSA): −0.3% | % Bias (Day 0, 100 ppm MIT vs no MIT, 25 mg/mL BSA): 2.0% | % Bias (Day 0, 100 ppm MIT vs no MIT, 50 mg/mL BSA): 1.9% | Sarcosine Oxidase Enzyme Absorbance, MEAN of 1-5 [8]: 1.38 | Sarcosine Oxidase Enzyme Absorbance, solutions 1-5 [8]: 1.41 and 1.418 and 1.423 and 1.42 and 1.425 | Sarcosine Oxidase Enzyme Absorbance, MEAN of 1-5 [9]: 1.41 | Sarcosine Oxidase Enzyme Absorbance, solutions 1-5 [9]: 1.447 and 1.459 and 1.456 and 1.449 and 1.468 | Sarcosine Oxidase Enzyme Absorbance, MEAN of 1-5 [10]: 1.38 | Sarcosine Oxidase Enzyme Absorbance, solutions 1-5 [10]: 1.396 and 1.419 and 1.45 and 1.414 and 1.413 | Sarcosine Oxidase Enzyme Absorbance, MEAN of 7-11 (Day 4, 5 mg/mL BSA only, no MIT (50 ppm MIT row)): 1.41 | Sarcosine Oxidase Enzyme Absorbance, MEAN of 7-11 (Day 4, 5 mg/mL BSA only, no MIT (100 ppm MIT row)): 1.36 | Sarcosine Oxidase Enzyme Absorbance, MEAN of 7-11 (Day 4, 25 mg/mL BSA only, no MIT (50 ppm MIT row)): 1.37 | Sarcosine Oxidase Enzyme Absorbance, MEAN of 7-11 (Day 4, 25 mg/mL BSA only, no MIT (100 ppm MIT row)): 1.36 | Sarcosine Oxidase Enzyme Absorbance, MEAN of 7-11 (Day 4, 50 mg/mL BSA only, no MIT (50 ppm MIT row)): 1.47 | Sarcosine Oxidase Enzyme Absorbance, MEAN of 7-11 (Day 4, 50 mg/mL BSA only, no MIT (100 ppm MIT row)): 1.36 | % Bias (Day 4, 50 ppm MIT vs no MIT, 5 mg/mL BSA): 1.4% | % Bias (Day 4, 50 ppm MIT vs no MIT, 25 mg/mL BSA): 3.0% | % Bias (Day 4, 50 ppm MIT vs no MIT, 50 mg/mL BSA): −7.2% | Sarcosine Oxidase Enzyme Absorbance, MEAN of 1-5 (Day 4, 50 ppm MIT, 5 mg/mL BSA): 1.43 | Sarcosine Oxidase Enzyme Absorbance, solutions 1-5 (Day 4, 50 ppm MIT, 5 mg/mL BSA): 1.47 and 1.446 and 1.456 and 1.467 | Sarcosine Oxidase Enzyme Absorbance, MEAN of 1-5 [11]: 1.41 | Sarcosine Oxidase Enzyme Absorbance, solutions 1-5 [11]: 1.446 and 1.431 and 1.432 and 1.448 and 1.434 | Sarcosine Oxidase Enzyme Absorbance, MEAN of 1-5 [12]: 1.37 | Sarcosine Oxidase Enzyme Absorbance, solutions 1-5 [12]: 1.429 and 1.415 and 1.37 and 1.398 and 1.381 | % Bias (Day 4, 100 ppm MIT vs no MIT, 5 mg/mL BSA): 1.5% | % Bias (Day 4, 100 ppm MIT vs no MIT, 25 mg/mL BSA): 1.0% | % Bias (Day 4, 100 ppm MIT vs no MIT, 50 mg/mL BSA): 1.0% | Sarcosine Oxidase Enzyme Absorbance, MEAN of 1-5 [13]: 1.38 | Sarcosine Oxidase Enzyme Absorbance, solutions 1-5 [13]: 1.404 and 1.416 and 1.435 and 1.42 | Sarcosine Oxidase Enzyme Absorbance, MEAN of 1-5 [14]: 1.37 | Sarcosine Oxidase Enzyme Absorbance, solutions 1-5 [14]: 1.42 and 1.392 and 1.415 and 1.383 and 1.4 | Sarcosine Oxidase Enzyme Absorbance, MEAN of 1-5 [15]: 1.38 | Sarcosine Oxidase Enzyme Absorbance, solutions 1-5 [15]: 1.397 and 1.396 and 1.413 and 1.425 and 1.412 | Sarcosine Oxidase Enzyme Absorbance, MEAN of 7-11 (Day 14, 5 mg/mL BSA only, no MIT (50 ppm MIT row)): 1.39 | Sarcosine Oxidase Enzyme Absorbance, MEAN of 7-11 (Day 14, 5 mg/mL BSA only, no MIT (100 ppm MIT row)): 1.42 | Sarcosine Oxidase Enzyme Absorbance, MEAN of 7-11 (Day 14, 25 mg/mL BSA only, no MIT (50 ppm MIT row)): 1.38 | Sarcosine Oxidase Enzyme Absorbance, MEAN of 7-11 (Day 14, 25 mg/mL BSA only, no MIT (100 ppm MIT row)): 1.40 | Sarcosine Oxidase Enzyme Absorbance, MEAN of 7-11 (Day 14, 50 mg/mL BSA only, no MIT (50 ppm MIT row)): 1.37 | Sarcosine Oxidase Enzyme Absorbance, MEAN of 7-11 (Day 14, 50 mg/mL BSA only, no MIT (100 ppm MIT row)): 1.44 | % Bias (Day 14, 50 ppm MIT vs no MIT, 5 mg/mL BSA): −1.0% | % Bias (Day 14, 50 ppm MIT vs no MIT, 25 mg/mL BSA): −0.2% | % Bias (Day 14, 50 ppm MIT vs no MIT, 50 mg/mL BSA): 1.5% | Sarcosine Oxidase Enzyme Absorbance, MEAN of 1-5 [16]: 1.37 | Sarcosine Oxidase Enzyme Absorbance, solutions 1-5 [16]: 1.413 and 1.372 and 1.41 and 1.423 and 1.437 | Sarcosine Oxidase Enzyme Absorbance, MEAN of 1-5 [17]: 1.38 | Sarcosine Oxidase Enzyme Absorbance, solutions 1-5 [17]: 1.413 and 1.41 and 1.422 and 1.427 | Sarcosine Oxidase Enzyme Absorbance, MEAN of 1-5 [18]: 1.39 | Sarcosine Oxidase Enzyme Absorbance, solutions 1-5 [18]: 1.434 and 1.444 and 1.427 and 1.431 and 1.432 | % Bias (Day 14, 100 ppm MIT vs no MIT, 5 mg/mL BSA): 0.3% | % Bias (Day 14, 100 ppm MIT vs no MIT, 25 mg/mL BSA): −0.2% | % Bias (Day 14, 100 ppm MIT vs no MIT, 50 mg/mL BSA): −0.8% | Sarcosine Oxidase Enzyme Absorbance, MEAN of 1-5 [19]: 1.43 | Sarcosine Oxidase Enzyme Absorbance, solutions 1-5 [19]: 1.479 and 1.506 and 1.389 and 1.39 and 1.577 | Sarcosine Oxidase Enzyme Absorbance, MEAN of 1-5 [20]: 1.40 | Sarcosine Oxidase Enzyme Absorbance, solutions 1-5 [20]: 1.422 and 1.404 and 1.428 and 1.458 and 1.477 | Sarcosine Oxidase Enzyme Absorbance, MEAN of 1-5 [21]: 1.43 | Sarcosine Oxidase Enzyme Absorbance, solutions 1-5 [21]: 1.442 and 1.477 and 1.456 and 1.492 and 1.478 | absorbance of the sarcosine oxidase enzyme compared to samples containing 0 mg/mL of BSA (days 4 and 14, 5, 25 and 50 mg/mL BSA, with MIT): increased absorbance | sarcosine oxidase absorbance, solutions 7-11 (days 4 and 14, only BSA, no MIT): increased (or at least maintained)
